In patent US8759400B2, “Histone deacetylase inhibitors for enhancing activity of antifungal agents” (MethylGene Inc., priority 2005, dated 2014):

What was measured:
A. fumigatus = assay: Clinical isolates, CLSI M38-A broth microdilution and checkerboard; format: cell-based
HMEC = assay: Mammalian cytotoxicity, MTT reduction
C. albicans [1] = assay: Immunocompromised mouse model of systemic candidiasis; format: in vivo; conditions: compound 4 at 2-10 mg/kg i.p. daily with ketoconazole 20 mg/kg i.p. daily, 7 days; immunocompromised mice; FIG. 4
Protocol: The standard method for the mouse candidiasis studies is as follows. Female CD-1 mice are immunocompromised by injecting 240 mg/kg cyclophosphamide on day -3 then 80 mg/kg cyclophosphamide on days 1 and 5. C. albicans is grown in Sabouraud agar, cells are resuspended in 0.9% saline and counted in a hemacytometer. […] Mice are treated with ketoconazole +/− test compound daily for seven days, starting one day after the infection. They are monitored daily for weight loss and death. Mice are sacrificed on day 8 and the kidneys are removed and homogenized and fungal load (CFU) per pair of kidneys determined.

C. dubliniensis = assay: Clinical isolates, CLSI M27-A2 broth microdilution and checkerboard; format: cell-based
C. glabrata = assay: as above; format: cell-based
Mucor Sp. = assay: Clinical isolates of other fungal species, checkerboard; format: cell-based
C. albicans [2] = assay: Clinical isolates, CLSI M27-A2 broth microdilution and checkerboard; format: cell-based; conditions: Cpd 4 with voriconazole
C. glabrata (ATCC 90030) = assay: MIC80 and checkerboard synergy with antifungal agents; format: cell-based, Candida glabrata; conditions: for Cpd 4 Conc for 4-fold synergy: C. glabrata (90030)
Rhizopus arrhizus = assay: Clinical isolates of other fungal species, checkerboard; format: cell-based
[3] = Cpd 4 with fluconazole, C. dubliniensis clinical isolates
[4] = Cpd 4 with voriconazole, C. dubliniensis clinical isolates
[5] = Rhizopus arrhizus, *Synergy occurs at ½ MIC of Cpd 4

For O=C(Cc1ccc(CCCCc2ccccc2)cc1)NO [Cpd 4], the “ITR/Cpd 4 FIC interpretation” value (A. fumigatus; Cpd 4 with itraconazole) was “(S) (S = synergy)”, the “VOR/Cpd 4 FIC interpretation” value (A. fumigatus; Cpd 4 with voriconazole) was “(S) (S = synergy)” and the “minimum Compound 4 concentration at which Compound 4 alone inhibited growth (number in brackets)” value (A. fumigatus; ITR checkerboard) was 4.0 µg/mL. For the same compound, the “MTT HMEC” value (HMEC) was 13 µM, the “effect on the activity of ketoconazole (fungal load, CFU per pair of kidneys)” value (C. albicans [1]) was “enhancing (i.e., synergistic) effect” and the “FLU/Cpd 4 FIC” value (C. dubliniensis; [3]) was 2.0. The “FLU/Cpd 4 FIC interpretation” value (C. dubliniensis; [3]) was “(I) (I = indifference)”, the “VOR/Cpd 4 FIC” value (C. dubliniensis; [4]) was 2.0 and the “VOR/Cpd 4 FIC interpretation” value (C. dubliniensis; [4]) was “(I) (I = indifference)”. The “minimum Compound 4 concentration at which Compound 4 alone inhibited growth (number in brackets)” value (C. dubliniensis; FLU checkerboard, C. dubliniensis clinical isolates) was 0.03 µg/mL, the “minimum Compound 4 concentration at which Compound 4 alone inhibited growth (number in brackets)” value (C. dubliniensis; VOR checkerboard, C. dubliniensis clinical isolates) was 0.12 µg/mL and the “activity of Compound 4 alone” value (C. dubliniensis; all 4 clinical isolates of C. dubliniensis) was “potent activity alone”. For the same compound, the “Conc. Cpd 4 for 4-fold decrease” value (C. glabrata; 4-fold reduction of FLU MIC, C. glabrata clinical isolates) was 0.5 µg/mL, the “Conc. Cpd 4 for 4-fold decrease” value (C. glabrata; 4-fold reduction of VOR MIC, C. glabrata clinical isolates) was 0.5 µg/mL and the “FLU/Cpd 4 FIC” value (C. glabrata; Cpd 4 with fluconazole, C. glabrata clinical isolates) was 0.5. For the same compound, the “VOR/Cpd 4 FIC interpretation” value (C. glabrata; Cpd 4 with voriconazole, C. glabrata clinical isolates) was “(S) (S = synergy)”, the “minimum Compound 4 concentration at which Compound 4 alone inhibited growth (number in brackets)” value (C. glabrata; FLU checkerboard, C. glabrata clinical isolates) was 0.5 µg/mL and the “minimum Compound 4 concentration at which Compound 4 alone inhibited growth (number in brackets)” value (C. glabrata; VOR checkerboard, C. glabrata clinical isolates) was 0.5 µg/mL. For the same compound, the “Compound 4 concentration for 4-fold reduction in azole MIC” value (C. glabrata; all 14 C. glabrata clinical isolates (9 FLU-R)) was < 0.5 µg/mL, the “Synergy with Cpd 4 (strains showing synergy/total strains tested) Itraconazole” value (Mucor Sp.; Mucor Sp.) was 1/3 and the “Synergy with Cpd 4 (strains showing synergy/total strains tested) Voriconazole” value (Mucor Sp.; Mucor Sp.) was 0/3. The MIC (Mucor Sp.; Mucor Sp. clinical isolates, read-out: Cpd 4 MIC) was 8 µg/mL, the “VOR/Cpd 4 FIC interpretation” value (C. albicans [2]) was “(S) (S = synergy)” and the “Conc. Cpd 4 for 4-fold decrease” value (C. glabrata (ATCC 90030); 4-fold decrease of fenpropimorph MIC, C. glabrata) was 0.78 µg/mL. The MIC (C. glabrata (ATCC 90030); Nakaseomyces glabratus, ATCC90030, compound alone, C. glabrata (ATCC 90030), read-out: MIC80) was 6.25 µg/mL, the “concentration at which Compound 4 synergizes with fenpropimorph” value (C. glabrata (ATCC 90030); against C. glabrata) was 2 µg/mL and the “Cpd 4 Conc for 4-fold synergy” value (C. glabrata (ATCC 90030); with itraconazole) was 0.2 µg/mL. For the same compound, the “Cpd 4 Conc for 4-fold synergy” value (C. glabrata (ATCC 90030); with ketoconazole) was 0.25 µg/mL, the “Cpd 4 Conc for 4-fold synergy” value (C. glabrata (ATCC 90030); with voriconazole) was 0.39 µg/mL and the MIC (Rhizopus arrhizus; Rhizopus arrhizus clinical isolates, read-out: Cpd 4 MIC) was > 8 µg/mL. For the same compound, the “Synergy with Cpd 4 (strains showing synergy/total strains tested) Itraconazole” value (Rhizopus arrhizus; [5]) was 2/3* and the “Synergy with Cpd 4 (strains showing synergy/total strains tested) Voriconazole” value (Rhizopus arrhizus; [5]) was 2/3*.
